Experimental data from patent publication US11420973B2, “Amide substituted indole compounds useful as TLR inhibitors” (BRISTOL-MYERS SQUIBB COMPANY, priority 2017, dated 2022).
Where a name gives a salt, the structure may show the parent alone. Read-outs that look alike come from different tables or passages of the source.

Key:
human TLR7 = human TLR7 (Homo sapiens (Human), UniProt Q9NYK1); experiment: TLR7 inhibition reporter assay (HEK-Blue SEAP reporter, gardiquimod stimulation); assay type: cell-based; conditions: HEK-Blue cells overexpressing human TLR7, gardiquimod 7.5 μM
human TLR8 = human TLR8 (Homo sapiens (Human), UniProt Q9NR97); experiment: TLR8 inhibition reporter assay (HEK-Blue SEAP reporter, R848 stimulation);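 note: SEAP driven by IFN-β minimal promoter with NF-κB and AP-1 sites, 22 h incubation, compounds 0.05 nM–50 µM, inhibition scaled between agonist plus DMSO and reference inhibitor wells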
Method: HEK-Blue™-cells (Invivogen) overexpressing human TLR7, TLR8 or TLR9 receptors were used for screening inhibitors of these receptors using an inducible SEAP (secreted embryonic alkaline phosphatase) reporter gene under the control of the IFN-β minimal promoter fused to five NF-κB and AP-1-binding sites. Briefly, cells are seeded into Greiner 384 well plates (15000 cells per well for TLR7, 20,000 for TLR8 and 25,000 for TLR9) and then treated with test compounds in DMSO to yield a final dose response concentration range of 0.05 nM-50 μM. After a 30 minute compound pre-treatment at room temperature, the cells are then stimulated with a TLR7 ligand (gardiquimod at a final concentration of 7.5 μM), TLR8 ligand (R848 at a final concentration of 15.9 μM) or TLR9 ligand (ODN2006 at a final concentration of 5 nM) to activate NF-κB and AP-1 which induce the production of SEAP. After a 22 hour incubation at 37° C., 5% CO2, SEAP levels are determined with the addition of HEK-Blue™ Detection reagent (Invivogen), a cell culture medium that allows for detection of SEAP, according to manufacturer's specifications.

human TLR9 = human TLR9 (Homo sapiens (Human), UniProt Q9NR96); experiment: TLR9 inhibition reporter assay (HEK-Blue SEAP reporter, ODN2006 stimulation);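 note: SEAP reporter under IFN-β minimal promoter with five NF-κB and AP-1 sites, 22 h incubation, compounds 0.05 nM–50 µM, inhibition relative to agonist plus DMSO versus known inhibitor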
[1] = read-out: TLR8 IC50, HEK-Blue cells overexpressing human TLR8, R848 15.9 μM, SEAP reporter
[2] = read-out: TLR9 IC50, HEK-Blue cells overexpressing human TLR9, ODN2006 5 nM, SEAP reporter

Chain of human TLR8 (Q9NR97 27-1041): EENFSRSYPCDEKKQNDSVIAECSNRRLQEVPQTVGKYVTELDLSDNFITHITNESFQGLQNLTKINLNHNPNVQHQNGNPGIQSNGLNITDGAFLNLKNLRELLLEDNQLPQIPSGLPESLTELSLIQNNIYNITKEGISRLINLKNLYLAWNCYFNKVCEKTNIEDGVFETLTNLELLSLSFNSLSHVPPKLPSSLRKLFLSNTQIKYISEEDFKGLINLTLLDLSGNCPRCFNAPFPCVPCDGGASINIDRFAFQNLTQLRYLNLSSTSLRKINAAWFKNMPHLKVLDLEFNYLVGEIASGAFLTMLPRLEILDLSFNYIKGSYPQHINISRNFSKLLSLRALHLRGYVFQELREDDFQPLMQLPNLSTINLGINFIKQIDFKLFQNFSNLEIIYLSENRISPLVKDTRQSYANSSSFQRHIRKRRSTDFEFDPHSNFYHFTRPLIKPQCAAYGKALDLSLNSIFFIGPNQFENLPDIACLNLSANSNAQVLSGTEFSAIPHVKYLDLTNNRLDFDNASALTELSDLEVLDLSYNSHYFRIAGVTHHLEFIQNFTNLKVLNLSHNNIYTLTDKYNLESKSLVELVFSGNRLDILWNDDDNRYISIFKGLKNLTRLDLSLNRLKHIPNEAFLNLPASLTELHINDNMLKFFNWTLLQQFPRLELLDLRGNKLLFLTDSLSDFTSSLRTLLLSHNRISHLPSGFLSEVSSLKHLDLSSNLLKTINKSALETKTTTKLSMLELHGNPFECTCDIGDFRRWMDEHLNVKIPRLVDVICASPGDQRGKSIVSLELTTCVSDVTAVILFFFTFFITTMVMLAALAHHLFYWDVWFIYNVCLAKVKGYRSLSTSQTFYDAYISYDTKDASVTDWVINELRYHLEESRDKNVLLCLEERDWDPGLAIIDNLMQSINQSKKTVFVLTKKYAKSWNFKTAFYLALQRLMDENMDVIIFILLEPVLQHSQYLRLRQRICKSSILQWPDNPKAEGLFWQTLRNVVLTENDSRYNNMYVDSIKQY
Chain of human TLR9 (Q9NR96 26-1032): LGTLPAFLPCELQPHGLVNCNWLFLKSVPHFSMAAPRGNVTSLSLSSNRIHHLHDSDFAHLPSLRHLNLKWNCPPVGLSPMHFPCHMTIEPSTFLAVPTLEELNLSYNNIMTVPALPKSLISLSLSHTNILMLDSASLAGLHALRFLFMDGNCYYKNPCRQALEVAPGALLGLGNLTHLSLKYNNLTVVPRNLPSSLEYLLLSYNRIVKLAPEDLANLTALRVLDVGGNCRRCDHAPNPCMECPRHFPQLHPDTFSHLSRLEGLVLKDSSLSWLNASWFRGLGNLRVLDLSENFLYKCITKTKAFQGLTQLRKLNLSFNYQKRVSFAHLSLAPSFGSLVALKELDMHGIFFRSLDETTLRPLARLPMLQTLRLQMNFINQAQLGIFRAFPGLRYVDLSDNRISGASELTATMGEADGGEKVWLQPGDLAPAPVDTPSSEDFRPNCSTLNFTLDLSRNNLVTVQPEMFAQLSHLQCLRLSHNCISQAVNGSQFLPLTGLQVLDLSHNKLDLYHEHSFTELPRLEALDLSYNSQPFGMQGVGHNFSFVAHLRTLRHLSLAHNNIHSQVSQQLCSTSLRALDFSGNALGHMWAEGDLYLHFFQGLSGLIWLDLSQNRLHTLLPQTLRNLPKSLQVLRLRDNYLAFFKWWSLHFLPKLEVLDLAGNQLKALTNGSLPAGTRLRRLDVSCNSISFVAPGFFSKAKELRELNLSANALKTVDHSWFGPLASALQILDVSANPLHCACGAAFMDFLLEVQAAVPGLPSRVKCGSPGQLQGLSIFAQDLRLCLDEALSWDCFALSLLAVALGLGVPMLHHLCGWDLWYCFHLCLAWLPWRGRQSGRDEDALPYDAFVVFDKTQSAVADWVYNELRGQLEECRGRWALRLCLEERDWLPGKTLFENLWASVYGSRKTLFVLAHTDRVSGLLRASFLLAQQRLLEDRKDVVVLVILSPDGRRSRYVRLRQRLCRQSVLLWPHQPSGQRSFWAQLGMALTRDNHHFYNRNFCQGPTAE
Chain of human TLR7 (Q9NYK1 27-1049): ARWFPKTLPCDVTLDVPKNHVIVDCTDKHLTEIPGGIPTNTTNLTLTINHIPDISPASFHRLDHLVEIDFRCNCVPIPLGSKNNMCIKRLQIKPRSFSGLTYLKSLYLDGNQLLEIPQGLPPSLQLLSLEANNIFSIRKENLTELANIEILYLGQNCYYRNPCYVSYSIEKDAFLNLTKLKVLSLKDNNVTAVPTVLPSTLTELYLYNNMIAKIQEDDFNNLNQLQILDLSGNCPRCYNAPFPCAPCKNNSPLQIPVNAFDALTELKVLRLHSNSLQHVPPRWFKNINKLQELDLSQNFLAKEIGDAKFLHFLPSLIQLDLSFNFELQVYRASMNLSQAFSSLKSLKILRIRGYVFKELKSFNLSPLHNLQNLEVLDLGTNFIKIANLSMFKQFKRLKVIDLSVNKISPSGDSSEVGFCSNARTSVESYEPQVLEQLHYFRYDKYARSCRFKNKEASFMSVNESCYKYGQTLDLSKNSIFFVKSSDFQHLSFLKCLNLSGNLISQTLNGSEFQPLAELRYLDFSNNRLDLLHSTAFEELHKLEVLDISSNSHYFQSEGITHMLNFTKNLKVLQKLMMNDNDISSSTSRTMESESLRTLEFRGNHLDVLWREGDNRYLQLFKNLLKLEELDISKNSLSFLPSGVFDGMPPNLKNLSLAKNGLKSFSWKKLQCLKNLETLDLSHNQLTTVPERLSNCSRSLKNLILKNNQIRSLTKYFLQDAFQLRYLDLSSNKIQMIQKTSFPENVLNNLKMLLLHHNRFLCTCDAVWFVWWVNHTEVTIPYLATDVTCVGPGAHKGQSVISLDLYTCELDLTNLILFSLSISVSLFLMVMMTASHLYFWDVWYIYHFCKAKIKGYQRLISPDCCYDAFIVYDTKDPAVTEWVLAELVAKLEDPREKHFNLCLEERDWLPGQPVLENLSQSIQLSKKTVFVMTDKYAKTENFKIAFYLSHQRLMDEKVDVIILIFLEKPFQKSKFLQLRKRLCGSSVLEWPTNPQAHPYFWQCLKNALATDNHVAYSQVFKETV

Row | IC50 (human TLR7) | IC50 (human TLR8; [1]) | IC50 (human TLR9; [2]) | IC50 (human TLR8) | IC50 (human TLR9) | Structure (SMILES)
1 | 146 nM | 100 nM | 599 nM | – | – | Cc1cc(-c2[nH]c3ccc(C(C)C(=O)NC4CCC5CNCC54)cc3c2C(C)C)ccn1 (stereo not drawn) [Example 186, 2-(3-isopropyl-2-(2-methylpyridin-4-yl)-1H-indol-5-yl)-N-(octahydrocyclopenta[c]pyrrol-4-yl)propanamide]
2 | 49 nM | 11 nM | 410 nM | – | – | Cc1cc(-c2[nH]c3ccc(C(=O)N4CC5CN(C(C)C)CC5C4)cc3c2C(C)C)cc(C)n1 (stereo not drawn) [Example 110, (2-(2,6-dimethylpyridin-4-yl)-3-isopropyl-1H-indol-5-yl)(5-isopropylhexahydropyrrolo[3,4-c]pyrrol-2(1H)-yl)methanone]
3 | 82 nM | 45 nM | > 50000 nM | – | – | Cc1cc(-c2[nH]c3ccc(C(=O)N4CCN(Cc5ncn(C)n5)CC4)cc3c2C(C)C)cc(C)n1 [Example 98, (2-(2,6-dimethylpyridin-4-yl)-3-isopropyl-1H-indol-5-yl)(4-((1-methyl-1H-1,2,4-triazol-3-yl)methyl)piperazin-1-yl)methanone]
4 | 139 nM | 18 nM | 855 nM | – | – | Cc1cc(-c2[nH]c3ccc(C(C)(C)C(=O)NCC4CCCCN4)cc3c2C(C)C)ccn1 (stereo not drawn) [Example 159, 2-(3-isopropyl-2-(2-methylpyridin-4-yl)-1H-indol-5-yl)-2-methyl-N-(piperidin-2-ylmethyl)propanamide]
5 | 74 nM | 119 nM | 939 nM | – | – | Cc1cc(-c2[nH]c3ccc(C(C)C(=O)N4CCC[C@H](N)C4)cc3c2C(C)C)ccn1 (stereo partly drawn) [Example 204, 1-((S)-3-aminopiperidin-1-yl)-2-(3-isopropyl-2-(2-methylpyridin-4-yl)-1H-indol-5-yl)propan-1-one]
6 | 260 nM | 211 nM | 8390 nM | – | – | Cc1cc(-c2[nH]c3ccc(C(C)(C)C(=O)N4CC5CC4CN5)cc3c2C(C)C)ccn1 (stereo not drawn) [Example 176, 1-(2,5-diazabicyclo[2.2.1]heptan-2-yl)-2-(3-isopropyl-2-(2-methylpyridin-4-yl)-1H-indol-5-yl)-2-methylpropan-1-one]
7 | 167 nM | 36 nM | 1010 nM | – | – | Cc1cc(-c2[nH]c3ccc(C(C)(C)C(=O)N4CCNCC4)cc3c2C(C)C)ccn1 [Example 175, 2-(3-isopropyl-2-(2-methylpyridin-4-yl)-1H-indol-5-yl)-2-methyl-1-(piperazin-1-yl)propan-1-one]
8 | 277 nM | 341 nM | 2460 nM | – | – | Cc1cc(-c2[nH]c3ccc(C(C)C(=O)N4CCCC(CN)C4)cc3c2C(C)C)ccn1 (stereo not drawn) [Example 205, 1-(3-(aminomethyl)piperidin-1-yl)-2-(3-isopropyl-2-(2-methylpyridin-4-yl)-1H-indol-5-yl)propan-1-one]
9 | 1050 nM | 27 nM | 438 nM | – | – | CC(C)c1c(-c2ccnc(N)c2)[nH]c2ccc(C(=O)NC3CCC(N(C)C)CC3)cc12 (stereo not drawn) [Example 87, 2-(2-aminopyridin-4-yl)-N-(4-(dimethylamino)cyclohexyl)-3-isopropyl-1H-indole-5-carboxamide]
10 | 137 nM | 211 nM | 957 nM | – | – | Cc1cc(-c2[nH]c3ccc(C(C)C(=O)N[C@H]4CCNC4)cc3c2C(C)C)ccn1 (stereo partly drawn) [Example 190, 2-(3-isopropyl-2-(2-methylpyridin-4-yl)-1H-indol-5-yl)-N—((S)-pyrrolidin-3-yl)propanamide]
11 | 238 nM | 676 nM | 1880 nM | – | – | Cc1cc(-c2[nH]c3ccc(C(C)(C)C(=O)NCC4CCCNC4)cc3c2C(C)C)ccn1 (stereo not drawn) [Example 163, 2-(3-isopropyl-2-(2-methylpyridin-4-yl)-1H-indol-5-yl)-2-methyl-N-(piperidin-3-ylmethyl)propanamide]
12 | 469 nM | 28 nM | 1570 nM | – | – | CCc1c(-c2ccnc(C)c2)[nH]c2ccc(C(=O)N3CC4CN(C(C)C)CC4C3)cc12 (stereo not drawn) [Example 86, (3-ethyl-2-(2-methylpyridin-4-yl)-1H-indol-5-yl)(5-isopropylhexahydropyrrolo[3,4c]pyrrol-2(1H)-yl)methanone]

More lines, now with the values behind:

Row | Structure (SMILES) | IC50 (human TLR7) | IC50 (human TLR8; [1]) | IC50 (human TLR9; [2]) | IC50 (human TLR8) | IC50 (human TLR9)
13 | CCc1c(-c2ccc(OC)c(OC)c2)[nH]c2ccc(C(=O)N(C)CCN(C)C)cc12 [Example 76, 2-(3,4-dimethoxyphenyl)-N-(2-(dimethylamino)ethyl)-3-ethyl-N-methyl-1H-indole-5-carboxamide] | 56 nM | 3.9 nM | 4890 nM | – | –
14 | CCc1c(-c2ccc(OC)c(OC)c2)[nH]c2ccc(C(=O)N3CCN(CCc4ccccc4)CC3)cc12 [Example 37, (2-(3,4-dimethoxyphenyl)-3-ethyl-1H-indol-5-yl)(4-phenethylpiperazine-1-yl)methanone] | 1300 nM | 14 nM | 9940 nM | – | –
15 | COc1ccc(-c2[nH]c3ccc(C(=O)N4CC5CNCC5C4)cc3c2CC(F)(F)F)cc1OC (stereo not drawn) [Example 88, (2-(3,4-dimethoxyphenyl)-3-(2,2,2-trifluoroethyl)-1H-indol-5-yl)(hexahydropyrrolo[3,4-c]pyrrol-2(1H)-yl)methanone hydrochloride] | 401 nM | – | – | 278 nM | 593 nM
16 | Cc1cc(-c2[nH]c3ccc(C(=O)N4CCCN(C)CC4)cc3c2CC(F)F)cc(C)n1 [Example 124, (3-(2,2-difluoroethyl)-2-(2,6-dimethylpyridin-4-yl)-1H-indol-5-yl)(4-methyl-1,4-diazepan-1-yl)methanone] | 128 nM | 36 nM | 1120 nM | – | –
17 | CCc1c(-c2ccc(OC)c(OC)c2)[nH]c2ccc(C(=O)NCCC3CCCN3C)cc12 (stereo not drawn) [Example 54, 2-(3,4-dimethoxyphenyl)-3-ethyl-N-(2-(1-methylpyrrolidin-2-yl)ethyl)-1H-indole-5-carboxamide] | 206 nM | 12 nM | 1810 nM | – | –
18 | CCc1c(-c2ccc(OC)c(OC)c2)[nH]c2ccc(C(=O)N3CCCN(C(C)=O)CC3)cc12 [Example 35, 1-(4-(2-(3,4-dimethoxyphenyl)-3-ethyl-1H-indole-5-carbonyl)-1,4-diazepan-1-yl)ethan-1-one] | 595 nM | 190 nM | > 50000 nM | – | –
19 | CCc1c(-c2ccc(OC)c(OC)c2)[nH]c2ccc(C(=O)N(C)Cc3csc(C4CCNCC4)n3)cc12 [Example 23, 2-(3,4-dimethoxyphenyl)-3-ethyl-N-methyl-N-((2-(piperidin-4-yl)thiazol-4-yl)methyl)-1H-indole-5-carboxamide] | 362 nM | 43 nM | 885 nM | – | –
20 | CCN(CC)C(=O)C1CCCN(CC(=O)N2CC3CN(C(=O)c4ccc5[nH]c(-c6ccc(OC)c(OC)c6)c(C(C)C)c5c4)CC3C2)C1 (single isomer, unassigned) [Example 10, 1-(2-{5-[2-(3,4-dimethoxyphenyl)-3-(propan-2-yl)-1H-indole-5-carbonyl]-octahydropyrrolo[3,4-c]pyrrol-2-yl}-2-oxoethyl)-N,N-diethylpiperidine-3-carboxamide] | 111 nM | 114 nM | 7630 nM | – | –
21 | CCc1c(-c2ccc(OC)c(OC)c2)[nH]c2ccc(C(=O)Nc3cnn(C4COC4)c3)cc12 [Example 21, 2-(3,4-dimethoxyphenyl)-3-ethyl-N-(1-(oxetan-3-yl)-1H-pyrazol-4-yl)-1H-indole-5-carboxamide] | 764 nM | 132 nM | 37400 nM | – | –
22 | CCc1c(-c2ccc(OC)c(OC)c2)[nH]c2ccc(C(=O)N3CCC[C@H]3CO)cc12 [Example 28, (S)-(2-(3,4-dimethoxyphenyl)-3-ethyl-1H-indol-5-yl)(2-(hydroxymethyl)pyrrolidin-1-yl)methanone] | 1350 nM | 220 nM | > 50000 nM | – | –
23 | CCc1c(-c2ccc(OC)c(OC)c2)[nH]c2ccc(C(=O)N3CCC(N4CCCCC4)CC3)cc12 [Example 56, [1,4′-bipiperidin]-1′-yl(2-(3,4-dimethoxyphenyl)-3-ethyl-1H-indol-5-yl)methanone] | 112 nM | 13 nM | 2190 nM | – | –
24 | Cc1cc(-c2[nH]c3ccc(C(=O)NC4CCN(C(C)C)CC4)cc3c2CC(F)F)cc(C)n1 [Example 123, 3-(2,2-difluoroethyl)-2-(2,6-dimethylpyridin-4-yl)-N-(1-isopropylpiperidin-4-yl)-1H-indole-5-carboxamide] | 83 nM | 75 nM | 231 nM | – | –
25 | CCc1c(-c2ccc(OC)c(OC)c2)[nH]c2ccc(C(=O)NC(CO)CO)cc12 [Example 67, N-(1,3-dihydroxypropan-2-yl)-2-(3,4-dimethoxyphenyl)-3-ethyl-1H-indole-5-carboxamide] | 1770 nM | 412 nM | > 50000 nM | – | –
26 | COc1ccc(-c2[nH]c3ccc(C(=O)N4CCCN(C)CC4)cc3c2C(C)C)cc1OC [Example 2, (2-(3,4-dimethoxyphenyl)-3-isopropyl-1H-indol-5-yl)(4-methyl-1,4-diazepan-1-yl)methanone] | 45 nM | 4 nM | 3010 nM | – | –
27 | COc1ccc(-c2[nH]c3ccc(C(=O)N(C)C)cc3c2C(C)C)cc1OC [Example 3, 2-(3,4-dimethoxyphenyl)-3-isopropyl-N,N-dimethyl-1H-indole-5-carboxamide] | 153 nM | 79 nM | > 50000 nM | – | –
28 | Cc1cc(-c2[nH]c3ccc(C(C)(C)C(=O)N(C)C4CN5CCC4CC5)cc3c2C(C)C)ccn1 (stereo not drawn) [Example 162, 2-(3-isopropyl-2-(2-methylpyridin-4-yl)-1H-indol-5-yl)-N,2-dimethyl-N-(quinuclidin-3-yl)propanamide] | 24 nM | 135 nM | 3520 nM | – | –
29 | CCc1c(-c2ccc(OC)c(OC)c2)[nH]c2ccc(C(=O)NCc3ccccn3)cc12 [Example 44, 2-(3,4-dimethoxyphenyl)-3-ethyl-N-(pyridin-2-ylmethyl)-1H-indole-5-carboxamide] | 1940 nM | 412 nM | 44800 nM | – | –
